pEC50, pKi: −log10 of the molar value. In brackets after ≈: the same amount, converted by molar mass.
How the values were obtained:
Histone deacetylase 1 = Histone deacetylase 1 (Homo sapiens, UniProt Q13547); test: Inhibition of human recombinant HDAC1 using Fluor de Lys as substrate after 2 hrs by fluorescence method
[1] = target: T1, Protein deacetylase HDAC6 (Homo sapiens, UniProt Q9UBN7); test: Inhibition of human recombinant HDAC6 using fluorogenic HDAC substrate after 30 mins by fluorimetrc method
T1 sequence (Q9UBN7 whole entry): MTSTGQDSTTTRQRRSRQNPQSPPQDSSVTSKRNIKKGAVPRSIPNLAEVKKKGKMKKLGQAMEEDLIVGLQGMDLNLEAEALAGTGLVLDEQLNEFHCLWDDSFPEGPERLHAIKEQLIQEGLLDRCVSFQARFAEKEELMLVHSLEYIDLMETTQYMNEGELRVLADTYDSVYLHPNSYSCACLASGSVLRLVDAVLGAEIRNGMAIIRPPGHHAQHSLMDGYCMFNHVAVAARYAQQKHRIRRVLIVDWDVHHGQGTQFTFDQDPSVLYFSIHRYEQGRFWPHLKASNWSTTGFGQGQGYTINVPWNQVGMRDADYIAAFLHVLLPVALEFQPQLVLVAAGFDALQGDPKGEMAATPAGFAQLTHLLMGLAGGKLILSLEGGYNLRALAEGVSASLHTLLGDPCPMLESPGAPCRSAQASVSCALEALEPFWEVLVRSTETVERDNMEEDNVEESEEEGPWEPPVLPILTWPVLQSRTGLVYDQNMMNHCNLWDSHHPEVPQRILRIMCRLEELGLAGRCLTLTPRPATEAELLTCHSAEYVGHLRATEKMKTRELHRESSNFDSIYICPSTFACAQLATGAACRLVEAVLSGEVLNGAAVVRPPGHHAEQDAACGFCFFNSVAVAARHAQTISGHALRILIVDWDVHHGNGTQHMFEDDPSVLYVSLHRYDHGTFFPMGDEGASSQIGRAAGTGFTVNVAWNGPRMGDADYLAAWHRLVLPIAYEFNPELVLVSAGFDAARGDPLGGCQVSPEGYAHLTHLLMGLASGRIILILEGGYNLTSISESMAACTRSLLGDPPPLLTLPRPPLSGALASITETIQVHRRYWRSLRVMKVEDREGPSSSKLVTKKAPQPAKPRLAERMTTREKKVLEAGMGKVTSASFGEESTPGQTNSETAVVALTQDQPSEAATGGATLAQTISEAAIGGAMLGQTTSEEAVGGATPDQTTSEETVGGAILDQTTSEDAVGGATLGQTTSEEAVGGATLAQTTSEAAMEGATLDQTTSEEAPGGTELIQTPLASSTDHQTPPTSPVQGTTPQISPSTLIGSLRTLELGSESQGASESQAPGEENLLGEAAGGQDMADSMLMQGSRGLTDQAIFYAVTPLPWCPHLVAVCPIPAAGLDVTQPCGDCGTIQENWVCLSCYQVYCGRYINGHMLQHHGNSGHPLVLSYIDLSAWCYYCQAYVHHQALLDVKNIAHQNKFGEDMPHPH

Histone deacetylase 11 = target: T2, Histone deacetylase 11 (Homo sapiens, UniProt Q96DB2); test: Inhibition of human recombinant HDAC11 using fluorogenic HDAC substrate class 2a after 30 mins by fluorimetrc method
T2 sequence (Q96DB2 whole entry): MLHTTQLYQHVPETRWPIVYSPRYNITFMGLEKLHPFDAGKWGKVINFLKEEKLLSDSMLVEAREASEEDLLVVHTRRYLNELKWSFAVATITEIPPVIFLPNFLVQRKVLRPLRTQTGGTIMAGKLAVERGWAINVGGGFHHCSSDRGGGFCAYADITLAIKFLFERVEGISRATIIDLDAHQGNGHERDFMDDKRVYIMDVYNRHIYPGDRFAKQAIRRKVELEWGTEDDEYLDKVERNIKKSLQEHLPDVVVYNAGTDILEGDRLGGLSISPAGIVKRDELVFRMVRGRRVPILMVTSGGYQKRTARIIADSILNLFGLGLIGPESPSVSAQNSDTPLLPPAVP

Histone deacetylase 5 = Histone deacetylase 5 (Homo sapiens, UniProt Q9UQL6); test: Inhibition of human recombinant HDAC5 using fluorogenic HDAC substrate class 2a after 30 mins by fluorimetrc method
Histone deacetylase 5, sequence (Q9UQL6 whole entry): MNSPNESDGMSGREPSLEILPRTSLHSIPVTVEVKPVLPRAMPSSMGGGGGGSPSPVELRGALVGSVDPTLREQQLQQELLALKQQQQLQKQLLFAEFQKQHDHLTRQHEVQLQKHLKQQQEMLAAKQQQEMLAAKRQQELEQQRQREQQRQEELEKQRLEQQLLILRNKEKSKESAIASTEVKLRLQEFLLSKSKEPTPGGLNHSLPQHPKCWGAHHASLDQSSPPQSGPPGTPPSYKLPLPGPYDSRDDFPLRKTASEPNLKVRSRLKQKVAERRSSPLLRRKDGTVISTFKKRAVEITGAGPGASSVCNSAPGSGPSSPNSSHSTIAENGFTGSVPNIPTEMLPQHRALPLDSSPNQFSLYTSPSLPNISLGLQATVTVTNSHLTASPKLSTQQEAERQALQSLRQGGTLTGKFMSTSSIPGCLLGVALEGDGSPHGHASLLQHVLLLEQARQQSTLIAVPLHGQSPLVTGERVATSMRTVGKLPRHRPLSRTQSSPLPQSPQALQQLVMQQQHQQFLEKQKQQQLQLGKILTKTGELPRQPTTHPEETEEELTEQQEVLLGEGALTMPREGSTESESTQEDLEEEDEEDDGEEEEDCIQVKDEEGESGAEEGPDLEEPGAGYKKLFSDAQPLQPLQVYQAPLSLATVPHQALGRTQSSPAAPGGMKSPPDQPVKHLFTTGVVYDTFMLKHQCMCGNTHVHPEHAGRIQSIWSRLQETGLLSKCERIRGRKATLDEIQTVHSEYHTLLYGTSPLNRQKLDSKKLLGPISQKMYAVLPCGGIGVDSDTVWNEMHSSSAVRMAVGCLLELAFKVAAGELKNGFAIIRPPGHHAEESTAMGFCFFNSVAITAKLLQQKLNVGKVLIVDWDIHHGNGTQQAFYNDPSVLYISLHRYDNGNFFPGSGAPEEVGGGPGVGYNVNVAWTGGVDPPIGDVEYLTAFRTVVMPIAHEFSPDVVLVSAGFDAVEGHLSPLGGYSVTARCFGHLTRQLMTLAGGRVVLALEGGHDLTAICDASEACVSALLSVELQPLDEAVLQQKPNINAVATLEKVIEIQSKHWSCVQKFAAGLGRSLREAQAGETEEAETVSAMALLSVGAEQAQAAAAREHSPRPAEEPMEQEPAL

Histone deacetylase 7 = target: T3, Histone deacetylase 7 (Homo sapiens, UniProt Q8WUI4); test: Inhibition of human recombinant HDAC7 using fluorogenic HDAC substrate class 2a after 45 mins by fluorimetrc method
T3 sequence (Q8WUI4 whole entry): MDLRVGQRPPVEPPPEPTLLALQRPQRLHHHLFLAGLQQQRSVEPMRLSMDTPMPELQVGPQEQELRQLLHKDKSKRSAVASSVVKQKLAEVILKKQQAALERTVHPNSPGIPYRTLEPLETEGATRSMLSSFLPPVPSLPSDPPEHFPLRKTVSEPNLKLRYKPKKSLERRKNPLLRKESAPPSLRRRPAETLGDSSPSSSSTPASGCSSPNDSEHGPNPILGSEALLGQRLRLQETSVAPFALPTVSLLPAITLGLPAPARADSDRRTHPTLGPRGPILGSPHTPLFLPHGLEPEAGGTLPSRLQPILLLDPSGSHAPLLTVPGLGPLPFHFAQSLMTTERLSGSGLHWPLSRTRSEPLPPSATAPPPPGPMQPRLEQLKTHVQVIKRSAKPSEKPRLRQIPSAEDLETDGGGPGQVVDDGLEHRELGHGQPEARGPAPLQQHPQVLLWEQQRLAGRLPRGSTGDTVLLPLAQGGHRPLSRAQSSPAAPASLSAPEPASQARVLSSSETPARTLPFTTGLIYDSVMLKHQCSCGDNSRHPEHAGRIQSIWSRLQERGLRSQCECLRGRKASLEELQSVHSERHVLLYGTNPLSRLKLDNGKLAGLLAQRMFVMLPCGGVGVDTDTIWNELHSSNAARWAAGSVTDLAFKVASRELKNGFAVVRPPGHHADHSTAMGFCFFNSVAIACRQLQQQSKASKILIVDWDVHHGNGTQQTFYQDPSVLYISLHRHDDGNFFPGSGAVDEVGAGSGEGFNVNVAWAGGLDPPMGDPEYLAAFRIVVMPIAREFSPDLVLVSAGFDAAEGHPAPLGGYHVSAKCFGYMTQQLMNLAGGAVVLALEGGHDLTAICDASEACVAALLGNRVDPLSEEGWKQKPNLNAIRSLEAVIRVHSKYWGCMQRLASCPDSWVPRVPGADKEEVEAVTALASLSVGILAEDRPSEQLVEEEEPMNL

[2] = Solubility in pH 7.4 phosphate buffer solution at 100 uM after 24 hrs by HPLC method; type: physicochemical; conditions: phosphate buffer, pH 7.4
HuT78 = test: Pro-apoptotic activity in human HUT78 cells after 18 hrs by caspase-Glo 3/7 assay; type: functional, cell-based; conditions: HuT78, 18 h

Histone deacetylase 1, sequence (Q13547 whole entry): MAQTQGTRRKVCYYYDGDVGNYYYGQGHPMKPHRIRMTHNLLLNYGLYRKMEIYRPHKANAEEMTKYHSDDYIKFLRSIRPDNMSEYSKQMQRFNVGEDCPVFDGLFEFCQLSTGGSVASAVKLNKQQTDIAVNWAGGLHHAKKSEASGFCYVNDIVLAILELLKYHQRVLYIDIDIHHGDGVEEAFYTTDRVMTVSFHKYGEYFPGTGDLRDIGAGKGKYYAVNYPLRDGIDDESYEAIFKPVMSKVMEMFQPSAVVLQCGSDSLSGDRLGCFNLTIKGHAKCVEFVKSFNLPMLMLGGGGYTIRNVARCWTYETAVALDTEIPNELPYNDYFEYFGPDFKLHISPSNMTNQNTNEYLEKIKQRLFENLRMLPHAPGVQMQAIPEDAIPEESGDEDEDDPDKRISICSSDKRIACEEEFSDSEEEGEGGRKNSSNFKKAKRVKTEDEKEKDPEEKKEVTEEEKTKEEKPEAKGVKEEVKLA

Row | pKi (Histone deacetylase 1) | pKi [1] | pKi (Histone deacetylase 11) | pKi (Histone deacetylase 5) | pKi (Histone deacetylase 7) | solubility at 24 h, 100 µM [2] [µM] | pEC50 (HuT78) | Compound
1 | 10.12 | 7.64 | 6.85 | 6.00 | < 5.00 | 3.3 (≈ 1.15 µg/mL) | 8.31 | COc1ccc(Nc2c(NCCCCCC(=O)NO)c(=O)c2=O)cc1
2 | 9.57 | 6.89 | 7.68 | 6.44 | 5.77 | 36 (≈ 14.9 µg/mL) | 8.14 | CC(C)(CCCCC(=O)NO)Nc1c(Nc2ccc(C(F)(F)F)cc2)c(=O)c1=O
3 | 8.42 | 6.89 | 7.42 | 5.38 | < 5.00 | 24 (≈ 9.68 µg/mL) | 7.01 | CC(Nc1c(NCCCCCC(=O)NO)c(=O)c1=O)C12CC3CC(CC(C3)C1)C2 (stereo unspecified)
